Test results as given in ChEMBL document CHEMBL1123664, “Preparation and antitumor activity of new mitomycin A analogues” (J Med Chem, 1987).
“And” between values parts separate entries of the source, which are not always exact repeats. Identical values can stand only once.

Experiments:
[1] = Partition coefficient (logP); type: physicochemical; settings: octanol/water
[2] = system: B16; experiment: Antitumor activity against subcutaneously B16 melanoma cells in mice at an optimal dose of 1.6 mg/kg expressed as […] effective dose; type: functional; settings: Mus musculus, B16, sc, route subcutaneous, read-out: MED
[3] = system: P388; experiment: Antitumor activity against intraperitoneally implanted P388 leukemia cells in mice expressed as ratio of median survival time for treated group to that of control group at an optimal dose of 3.2 mg/kg; type: functional, Mus musculus; settings: route intraperitoneal
[4] = system: P388; experiment: Antitumor activity against intraperitoneally implanted P388 leukemia cells in mice at an optimal dose of 3.2 mg/kg expressed as […] effective dose; type: functional; settings: Mus musculus, P388, ip, route intraperitoneal, read-out: MED
[5] = system: B16; experiment: Antitumor activity against subcutaneously B16 melanoma cells in mice expressed as ratio of median survival time for treated group to that of control group at an optimal dose of 1.6 mg/kg; type: functional, Mus musculus; settings: route subcutaneous
[6] = system: P388; experiment: Antitumor activity against intraperitoneally implanted P388 leukemia cells in mice at an optimal dose of 1.6 mg/kg expressed as […] effective dose; type: functional; settings: Mus musculus, P388, ip, route intraperitoneal, read-out: MED
[7] = system: P388; experiment: Antitumor activity against intraperitoneally implanted P388 leukemia cells in mice expressed as ratio of median survival time for treated group to that of control group at an optimal dose of 1.6 mg/kg; type: functional, Mus musculus; settings: route intraperitoneal
[8] = system: P388; experiment: Antitumor activity against intraperitoneally implanted P388 leukemia cells in mice expressed as ratio of median survival time for treated group to that of control group at an optimal dose of 0.2 mg/kg; type: functional, Mus musculus; settings: route intraperitoneal
[9] = system: B16; experiment: Antitumor activity against subcutaneously B16 melanoma cells in mice at an optimal dose of 0.4 mg/kg expressed as […] effective dose; type: functional; settings: Mus musculus, B16, sc, route subcutaneous, read-out: MED
[10] = system: P388; experiment: Antitumor activity against intraperitoneally implanted P388 leukemia cells in mice expressed as ratio of median survival time for treated group to that of control group at an optimal dose of 0.4 mg/kg; type: functional, Mus musculus; settings: route intraperitoneal
[11] = system: P388; experiment: Antitumor activity against intraperitoneally implanted P388 leukemia cells in mice at an optimal dose of 0.4 mg/kg expressed as […] effective dose; type: functional, Mus musculus; settings: route intraperitoneal; for minimal effective dose at 0.4 mg/kg: Mus musculus, P388, ip, read-out: MED
[12] = system: P388; experiment: Antitumor activity against intraperitoneally implanted P388 leukemia cells in mice at an optimal dose of 0.2 mg/kg expressed as […] effective dose; type: functional; settings: Mus musculus, P388, ip, route intraperitoneal, read-out: MED
[13] = system: P388; experiment: Antitumor activity against intraperitoneally implanted P388 leukemia cells in mice expressed as ratio of median survival time for treated group to that of control group given in equally divided doses on days 1,4 and 7; type: functional, Mus musculus
[14] = system: B16; experiment: Antitumor activity against subcutaneously B16 melanoma cells in mice expressed as ratio of median survival time for treated group to that of control group at an optimal dose of 0.4 mg/kg; type: functional, Mus musculus; settings: route subcutaneous
[15] = system: B16; experiment: (§1) Antitumor activity against subcutaneously B16 melanoma cells in mice expressed as ratio of median survival time for treated group to that of control group at an optimal dose of 1-3 mg/kg; type: functional, Mus musculus
[16] = system: B16; experiment: Antitumor activity against subcutaneously B16 melanoma cells in mice expressed as […] effective dose at an optimal dose of 0.8 mg/kg; type: functional; settings: Mus musculus, B16, sc, route subcutaneous, read-out: MED
[17] = system: B16; experiment: Antitumor activity against subcutaneously B16 melanoma cells in mice expressed as ratio of median survival time for treated group to that of control group at an optimal dose of 0.8 mg/kg; type: functional, Mus musculus; settings: route subcutaneous
[18] = system: P388; experiment: Antitumor activity against intraperitoneally implanted P388 leukemia cells in mice at an optimal dose of 12.8 mg/kg expressed as […] effective dose; type: functional; settings: Mus musculus, P388, ip, route intraperitoneal, read-out: MED
[19] = system: P388; experiment: Antitumor activity against intraperitoneally implanted P388 leukemia cells in mice expressed as ratio of median survival time for treated group to that of control group at an optimal dose of 12.8 mg/kg; type: functional, Mus musculus; settings: route intraperitoneal
[20] = system: B16; experiment: Antitumor activity against subcutaneously B16 melanoma cells in mice at an optimal dose of 0.8 mg/kg expressed as […] effective dose; type: functional, Mus musculus; settings: route subcutaneous; for minimal effective dose at 0.8 mg/kg: Mus musculus, B16, sc, read-out: MED
[21] = system: B16; experiment: as §1; type: functional, Mus musculus; remark: listed apart in the source
[22] = system: B16; experiment: Antitumor activity against subcutaneously B16 melanoma cells in mice expressed as ratio of median survival time for treated group to that of control group at an optimal dose of 1.2 mg/kg; type: functional, Mus musculus; settings: route subcutaneous
[23] = system: B16; experiment: Antitumor activity against subcutaneously B16 melanoma cells in mice at an optimal dose of 1.2 mg/kg expressed as […] effective dose; type: functional; settings: Mus musculus, B16, sc, route subcutaneous, read-out: MED
[24] = system: P388; experiment: Antitumor activity against intraperitoneally implanted P388 leukemia cells in mice at an optimal dose of 0.8 mg/kg expressed as […] effective dose; type: functional; settings: Mus musculus, P388, ip, route intraperitoneal, read-out: MED
[25] = system: P388; experiment: Antitumor activity against intraperitoneally implanted P388 leukemia cells in mice expressed as ratio of median survival time for treated group to that of control group at an optimal dose of 0.8 mg/kg; type: functional, Mus musculus; settings: route intraperitoneal
[26] = system: P388; experiment: Antitumor activity against intraperitoneally implanted P388 leukemia cells in mice at an optimal dose of 6.4 mg/kg expressed as […] effective dose; type: functional; settings: Mus musculus, P388, ip, route intraperitoneal, read-out: MED
[27] = system: P388; experiment: Antitumor activity against intraperitoneally implanted P388 leukemia cells in mice expressed as ratio of median survival time for treated group to that of control group at an optimal dose of 6.4 mg/kg; type: functional, Mus musculus; settings: route intraperitoneal

## CO[C@@]12C(COC(N)=O)C3=C(C(=O)C(C)=C(OCCN(C)C)C3=O)N1CC1NC12 (some centres not stated)
[1]
  logP: 0.46
[2]
  minimal effective dose at 1.6 mg/kg: 0.4 mg/kg
[3]
  T/C: 281%
[4]
  minimal effective dose at 3.2 mg/kg: < 0.025 mg/kg
[5]
  T/C: 220%

## CO[C@@]12C(COC(N)=O)C3=C(C(=O)C(C)=C(OCCO)C3=O)N1CC1C2N1C (some centres not stated)
[1]
  logP: 0.67
[3]
  T/C: 222%
[4]
  minimal effective dose at 3.2 mg/kg: 0.05 mg/kg

## C=CCOC1=C(C)C(=O)C2=C(C1=O)C(COC(N)=O)[C@@]1(OC)C3NC3CN21 (some centres not stated)
[1]
  logP: 0.87
[6]
  minimal effective dose at 1.6 mg/kg: 0.1 mg/kg
[7]
  T/C: 156%

## CO[C@@]12C(COC(N)=O)C3=C(C(=O)C(C)=C(OCCO)C3=O)N1CC1NC12 (some centres not stated)
[8]
  T/C: 217%
[9]
  minimal effective dose at 0.4 mg/kg: 0.2 mg/kg
[10]; 0.4 mg/kg
  T/C: 178% and >328%
[11]
  minimal effective dose at 0.4 mg/kg: 0.0063 mg/kg
  MED: 0.0063 mg/kg
[12]
  minimal effective dose at 0.2 mg/kg: < 0.1 mg/kg
[13]
  T/C: 194%
[14]
  T/C: 178%

## CO[C@@]12C(COC(N)=O)C3=C(C(=O)C(C)=C(OC4CCOC4)C3=O)N1CC1NC12 (some centres not stated)
[1]
  logP: 0.79
[2]
  minimal effective dose at 1.6 mg/kg: 1.6 mg/kg
[15]
  T/C: 135%
[3]
  T/C: 178%
[4]
  minimal effective dose at 3.2 mg/kg: < 0.05 mg/kg
[5]
  T/C: 198%

## CO[C@@]12C(COC(N)=O)C3=C(C(=O)C(C)=C(OCCOCCO)C3=O)N1CC1NC12 (some centres not stated)
[16]
  minimal effective dose at 0.8 mg/kg: 0.4 mg/kg
[10]
  T/C: 210%
[11]
  minimal effective dose at 0.4 mg/kg: 0.1 mg/kg
[17]
  T/C: >265%

## COC(COC1=C(C)C(=O)C2=C(C1=O)C(COC(N)=O)[C@@]1(OC)C3NC3CN21)OC (some centres not stated)
[2]
  minimal effective dose at 1.6 mg/kg: 0.4 mg/kg
[6]
  minimal effective dose at 1.6 mg/kg: < 0.025 mg/kg
[7]
  T/C: 269%
[5]
  T/C: 216%

## CO[C@@]12C(COC(N)=O)C3=C(C(=O)C(C)=C(OCC(O)CO)C3=O)N1CC1NC12 (some centres not stated)
[18]
  minimal effective dose at 12.8 mg/kg: 0.2 mg/kg
[19]
  T/C: 225% and 205%

## CO[C@@]12C(COC(N)=O)C3=C(C(=O)C(C)=C(OCCSSCCO)C3=O)N1CC1NC12 (some centres not stated)
[1]
  logP: 1.35
[20]
  minimal effective dose at 0.8 mg/kg: 0.2 mg/kg
[21]
  T/C: 136%
[7]
  T/C: 259%
[17]
  T/C: 243%

## CO[C@@]12C(COC(N)=O)C3=C(C(=O)C(C)=C(OCCCCl)C3=O)N1CC1NC12 (some centres not stated)
[1]
  logP: 1.65
[3]
  T/C: 150%
[4]
  minimal effective dose at 3.2 mg/kg: 0.2 mg/kg

## CO[C@@]12C(COC(N)=O)C3=C(C(=O)C(C)=C(OCCC#N)C3=O)N1CC1NC12 (some centres not stated)
[10]
  T/C: 200%
[22]
  T/C: 141%
[23]
  minimal effective dose at 1.2 mg/kg: 0.8 mg/kg

## CO[C@@]12C(COC(N)=O)C3=C(C(=O)C(C)=C(OCC4CCCO4)C3=O)N1CC1NC12 (some centres not stated)
[1]
  logP: 1.29
[20]
  minimal effective dose at 0.8 mg/kg: 0.2 mg/kg
  MED: 0.2 mg/kg
[15]
  T/C: 133%
[21]
  T/C: 147%
[17]; 0.8 mg/kg
  T/C: 212% and 198%
[24]
  minimal effective dose at 0.8 mg/kg: < 0.05 mg/kg
[25]
  T/C: 239%

## CO[C@@]12C(COC(N)=O)C3=C(C(=O)C(C)=C(OCc4ccco4)C3=O)N1CC1NC12 (some centres not stated)
[1]
  logP: 1.6
[26]
  minimal effective dose at 6.4 mg/kg: 6.4 mg/kg
[27]
  T/C: 139%
